Data from ChEMBL document CHEMBL5131567, “3,5,7-Substituted Pyrazolo[4,3-d]Pyrimidine Inhibitors of Cyclin-Dependent Kinases and Cyclin K Degraders” (J Med Chem, 2022).
Calls of active or inactive are those of the source. The calls are words filed in the database; no cut-off is given here.

What was measured:
[1] = Inhibition of GST-tagged human CDK5/p25 expressed in Sf9 cells using histone H1 as substrate in presence of ATP and [gamma33-P] ATP by radioisotope filter binding assay
[2] = Antiproliferative activity against human OCI-Ly2 cells assessed as cell growth inhibition measured after 72 hrs by resazurin dye based microplate reader analysis; type: functional
CDK12/Cyclin K = CDK12/Cyclin K (Homo sapiens, UniProt Q9NYV4); experiment: Inhibition of GST-tagged human CDK12/Cyclin K expressed in Sf9 cells using RBER-IRStide peptide as substrate in presence of ATP and [gamma33-P] ATP by radioisotope filter binding assay
MINO [3] = experiment: Induction of apoptosis in human MINO cells assessed as reduction in XIAP levels at 2.5 to 40 nM measured after 24 hrs by immunoblotting analysis; type: functional, cell-based; settings: dose 2.5-40 nM
NU-DUL-1 = experiment: Antiproliferative activity against human NU-DUL-1 cells assessed as cell growth inhibition measured after 72 hrs by resazurin dye based microplate reader analysis; type: functional
OCI-LY19 = experiment: Antiproliferative activity against human OCILY19 cells assessed as cell growth inhibition measured after 72 hrs by resazurin dye based microplate reader analysis; type: functional
MINO [4] = experiment: Downregulation of mcl-1 levels in human MINO cells incubated for 2 hrs by immunoblotting analysis; type: functional, cell-based; settings: dose 2.5-40 nM, DDE = dose-dependent effect
[5] = biological target: Cyclin-dependent kinase 2/G1/S-specific cyclin-D1 (Homo sapiens, UniProt P24385+P24941); type: cell-based, Sf9
U2932 = experiment: Antiproliferative activity against human U2932 cells assessed as cell growth inhibition measured after 72 hrs by resazurin dye based microplate reader analysis; type: functional
VFN-D2 [6] = experiment: In vivo induction of degradation of cyclin K in patient-derived VFN-D2 cells xenografted in NSG mouse assessed as reduction in CDK12 levels at 0.1 to 10 mg/kg, ip measured after 24 hrs by immunoblotting analysis; type: functional, organism-based; settings: dose 0.1-10 mg/kg
MINO [7] = experiment: Inhibition of CDK in human MINO cells assessed as dephosphorylation of retinoblastoma protein incubated for 2 hrs by immunoblotting analysis; type: cell-based; settings: dose 0.005-5 µM, DDE = dose-dependent effect
MINO [8] = experiment: Downregulation of cyclin K levels in human MINO cells at 50 nM incubated for 2 hrs by immunoblotting analysis; type: functional, cell-based
MINO [9] = experiment: Downregulation of RB levels in human MINO cells incubated for 24 hrs by immunoblotting analysis; type: functional, cell-based; settings: dose 2.5-40 nM, DDE = dose-dependent effect
VFN-D2 [10] = experiment: In vivo induction of degradation of cyclin K in patient-derived VFN-D2 cells xenografted in NSG mouse assessed as reduction in cyclin K levels at 0.1 to 10 mg/kg, ip measured after 24 hrs by immunoblotting analysis; type: functional, organism-based; settings: dose 0.1-10 mg/kg
[11] = Antiproliferative activity against human Ri-1 cells assessed as cell growth inhibition measured after 72 hrs by resazurin dye based microplate reader analysis; type: functional
[12] = biological target: Cyclin-dependent kinase 2/cyclin E1 (Homo sapiens, UniProt P24941); experiment: Inhibition of His-tagged CDK2/cyclin E1 (unknown origin) expressed in Sf9 cells using histone H1 as substrate in presence of ATP and [gamma33-P]ATP by radioisotope filter binding assay; type: cell-based
SUD4 = experiment: Antiproliferative activity against human SU-DHL-4 cells assessed as cell growth inhibition measured after 72 hrs by resazurin dye based microplate reader analysis; type: functional
MINO [13] = experiment: Downregulation of CDK4 levels in human MINO cells incubated for 24 hrs by immunoblotting analysis; type: functional, cell-based; settings: dose 2.5-40 nM, DDE = dose-dependent effect
MINO [14] = experiment: Induction of degradation of cyclin K in human MINO cells coexpressing DDB1 with siRNA assessed as stabilization of cyclin K levels at 100 nM measured after 1 hrs by immunoblotting analysis; type: functional, cell-based
MINO [15] = experiment: Downregulation of cyclin D1 levels in human MINO cells incubated for 24 hrs by immunoblotting analysis; type: functional, cell-based; settings: dose 2.5-40 nM, DDE = dose-dependent effect
DB = experiment: Antiproliferative activity against human DB cells assessed as cell growth inhibition measured after 72 hrs by resazurin dye based microplate reader analysis; type: functional
CDK9/cyclin T1 = CDK9/cyclin T1 (Homo sapiens, UniProt P50750); experiment: Inhibition of GST-tagged human CDK9/Cyclin T1 expressed in Sf9 cells using (YSPTSPS)2KK peptide as substrate in presence of ATP and [gamma33-P] ATP by radioisotope filter binding assay; type: cell-based
[16] = Antiproliferative activity against human UPF1H cells assessed as cell growth inhibition measured after 72 hrs by resazurin dye based microplate reader analysis; type: functional
[17] = Antiproliferative activity against human MINO cells assessed as cell growth inhibition measured after 72 hrs by resazurin dye based microplate reader analysis; type: functional
MINO [18] = experiment: Inhibition of CDK in human MINO cells assessed as dephosphorylation of C-terminus of RNA polymerase II at serine 5 incubated for 2 hrs by immunoblotting analysis; type: cell-based; settings: dose 0.005-5 µM, DDE = dose-dependent effect
MINO [19] = experiment: Downregulation of cyclin K levels in human MINO cells at 5 nM incubated for 2 hrs by immunoblotting analysis; type: functional, cell-based
MINO [20] = experiment: Induction of apoptosis in human MINO cells assessed as reduction in mcl-1 levels at 2.5 to 40 nM measured after 24 hrs by immunoblotting analysis; type: functional, cell-based; settings: dose 2.5-40 nM
[21] = biological target: Cyclin-dependent kinase 13/Cyclin-K (Homo sapiens, UniProt Q14004); experiment: Inhibition of GST-tagged human CDK13/Cyclin K expressed in Sf9 cells using RBER-IRStide peptide as substrate in presence of ATP and [gamma33-P] ATP by radioisotope filter binding assay
MINO [22] = experiment: Inhibition of CDK in human MINO cells assessed as dephosphorylation of C-terminus of RNA polymerase II at serine 2 incubated for 2 hrs by immunoblotting analysis; type: cell-based; settings: dose 0.005-5 µM, DDE = dose-dependent effect

Cyclin-dependent kinase 13/Cyclin-K, sequence (Q14004 whole entry): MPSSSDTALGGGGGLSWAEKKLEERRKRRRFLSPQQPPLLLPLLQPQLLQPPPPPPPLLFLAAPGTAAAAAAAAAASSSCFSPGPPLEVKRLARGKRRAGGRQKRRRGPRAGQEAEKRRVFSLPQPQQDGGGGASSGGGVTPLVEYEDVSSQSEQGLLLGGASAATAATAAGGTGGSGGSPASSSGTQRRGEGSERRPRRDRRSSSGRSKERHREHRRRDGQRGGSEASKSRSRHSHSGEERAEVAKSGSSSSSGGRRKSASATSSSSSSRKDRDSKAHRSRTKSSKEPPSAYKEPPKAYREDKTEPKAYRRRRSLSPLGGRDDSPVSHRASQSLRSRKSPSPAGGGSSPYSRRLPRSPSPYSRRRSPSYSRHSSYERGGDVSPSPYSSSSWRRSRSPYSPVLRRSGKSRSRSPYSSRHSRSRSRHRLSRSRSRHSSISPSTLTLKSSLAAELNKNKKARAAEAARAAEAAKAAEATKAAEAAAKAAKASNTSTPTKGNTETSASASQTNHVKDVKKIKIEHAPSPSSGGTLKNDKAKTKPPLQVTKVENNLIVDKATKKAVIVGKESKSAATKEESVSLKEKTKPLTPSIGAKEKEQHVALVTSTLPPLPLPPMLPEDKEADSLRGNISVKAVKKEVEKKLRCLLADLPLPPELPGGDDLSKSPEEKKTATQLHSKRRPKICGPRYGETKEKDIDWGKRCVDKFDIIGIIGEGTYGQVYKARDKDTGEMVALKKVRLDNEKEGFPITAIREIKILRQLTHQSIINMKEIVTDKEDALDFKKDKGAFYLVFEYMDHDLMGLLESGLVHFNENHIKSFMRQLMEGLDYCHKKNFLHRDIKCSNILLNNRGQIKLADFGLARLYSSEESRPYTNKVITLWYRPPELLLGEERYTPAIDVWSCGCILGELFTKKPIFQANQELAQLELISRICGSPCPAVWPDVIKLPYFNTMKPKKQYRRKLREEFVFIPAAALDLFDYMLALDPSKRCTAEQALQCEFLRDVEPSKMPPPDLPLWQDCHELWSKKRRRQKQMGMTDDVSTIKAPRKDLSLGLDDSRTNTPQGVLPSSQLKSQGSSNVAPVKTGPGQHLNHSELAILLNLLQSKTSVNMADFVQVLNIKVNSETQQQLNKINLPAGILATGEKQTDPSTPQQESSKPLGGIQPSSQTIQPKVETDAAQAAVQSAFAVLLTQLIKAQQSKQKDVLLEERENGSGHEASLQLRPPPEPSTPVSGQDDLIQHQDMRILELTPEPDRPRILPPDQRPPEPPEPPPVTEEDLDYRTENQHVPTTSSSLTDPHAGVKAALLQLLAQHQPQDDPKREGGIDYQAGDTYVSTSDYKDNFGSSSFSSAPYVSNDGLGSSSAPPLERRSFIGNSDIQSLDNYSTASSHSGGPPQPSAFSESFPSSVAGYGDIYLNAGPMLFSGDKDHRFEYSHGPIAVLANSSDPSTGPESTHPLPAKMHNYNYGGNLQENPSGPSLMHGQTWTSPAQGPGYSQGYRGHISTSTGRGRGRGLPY
Cyclin-dependent kinase 13/Cyclin-K, sequence (O75909 whole entry, further chain): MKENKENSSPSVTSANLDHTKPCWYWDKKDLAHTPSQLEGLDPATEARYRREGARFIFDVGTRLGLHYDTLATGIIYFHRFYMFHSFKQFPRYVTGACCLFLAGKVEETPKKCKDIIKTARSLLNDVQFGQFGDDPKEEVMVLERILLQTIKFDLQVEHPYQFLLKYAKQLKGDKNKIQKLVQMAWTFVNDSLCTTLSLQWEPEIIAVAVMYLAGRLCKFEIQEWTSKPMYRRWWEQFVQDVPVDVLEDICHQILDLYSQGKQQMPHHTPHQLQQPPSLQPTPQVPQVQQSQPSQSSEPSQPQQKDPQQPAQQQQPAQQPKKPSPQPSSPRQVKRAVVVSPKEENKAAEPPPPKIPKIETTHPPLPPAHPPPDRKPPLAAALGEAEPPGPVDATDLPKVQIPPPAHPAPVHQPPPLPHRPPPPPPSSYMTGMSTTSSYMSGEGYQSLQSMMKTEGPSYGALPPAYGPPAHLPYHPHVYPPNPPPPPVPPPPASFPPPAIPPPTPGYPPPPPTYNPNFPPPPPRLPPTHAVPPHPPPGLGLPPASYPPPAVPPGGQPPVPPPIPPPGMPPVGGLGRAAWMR
CDK9/cyclin T1, sequence (O60563 whole entry): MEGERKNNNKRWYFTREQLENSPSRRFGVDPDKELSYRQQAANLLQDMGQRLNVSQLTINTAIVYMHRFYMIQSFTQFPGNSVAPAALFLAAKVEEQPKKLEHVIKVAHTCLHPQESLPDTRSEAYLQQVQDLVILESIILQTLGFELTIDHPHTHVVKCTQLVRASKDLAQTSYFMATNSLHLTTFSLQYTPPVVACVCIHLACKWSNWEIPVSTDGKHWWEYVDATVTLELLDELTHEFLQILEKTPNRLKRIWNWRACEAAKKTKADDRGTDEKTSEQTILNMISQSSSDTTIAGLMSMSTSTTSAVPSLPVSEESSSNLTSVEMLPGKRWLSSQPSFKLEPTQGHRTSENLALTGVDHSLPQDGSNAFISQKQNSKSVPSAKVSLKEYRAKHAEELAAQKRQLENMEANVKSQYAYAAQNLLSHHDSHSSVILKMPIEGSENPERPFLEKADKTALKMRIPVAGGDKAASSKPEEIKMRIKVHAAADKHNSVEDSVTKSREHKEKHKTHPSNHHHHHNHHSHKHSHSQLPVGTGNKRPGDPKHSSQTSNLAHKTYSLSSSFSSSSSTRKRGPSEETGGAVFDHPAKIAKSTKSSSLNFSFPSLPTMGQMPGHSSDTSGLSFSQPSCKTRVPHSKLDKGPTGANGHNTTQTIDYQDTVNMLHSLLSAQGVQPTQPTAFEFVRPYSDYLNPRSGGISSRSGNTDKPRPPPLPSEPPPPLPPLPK
CDK9/cyclin T1, sequence (P50750 whole entry): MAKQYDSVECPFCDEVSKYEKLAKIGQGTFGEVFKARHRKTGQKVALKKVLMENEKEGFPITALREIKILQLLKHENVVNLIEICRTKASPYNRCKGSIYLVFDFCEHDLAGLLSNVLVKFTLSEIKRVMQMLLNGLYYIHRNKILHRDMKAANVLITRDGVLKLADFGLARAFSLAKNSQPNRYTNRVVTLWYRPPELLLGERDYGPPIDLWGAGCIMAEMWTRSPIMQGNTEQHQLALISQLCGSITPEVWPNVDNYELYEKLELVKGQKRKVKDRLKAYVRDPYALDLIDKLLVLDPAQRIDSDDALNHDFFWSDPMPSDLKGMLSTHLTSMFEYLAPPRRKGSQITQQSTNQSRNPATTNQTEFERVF
CDK12/Cyclin K, sequence (O75909 whole entry): as the sequence (O75909 whole entry, further chain) above
CDK12/Cyclin K, sequence (Q9NYV4 whole entry): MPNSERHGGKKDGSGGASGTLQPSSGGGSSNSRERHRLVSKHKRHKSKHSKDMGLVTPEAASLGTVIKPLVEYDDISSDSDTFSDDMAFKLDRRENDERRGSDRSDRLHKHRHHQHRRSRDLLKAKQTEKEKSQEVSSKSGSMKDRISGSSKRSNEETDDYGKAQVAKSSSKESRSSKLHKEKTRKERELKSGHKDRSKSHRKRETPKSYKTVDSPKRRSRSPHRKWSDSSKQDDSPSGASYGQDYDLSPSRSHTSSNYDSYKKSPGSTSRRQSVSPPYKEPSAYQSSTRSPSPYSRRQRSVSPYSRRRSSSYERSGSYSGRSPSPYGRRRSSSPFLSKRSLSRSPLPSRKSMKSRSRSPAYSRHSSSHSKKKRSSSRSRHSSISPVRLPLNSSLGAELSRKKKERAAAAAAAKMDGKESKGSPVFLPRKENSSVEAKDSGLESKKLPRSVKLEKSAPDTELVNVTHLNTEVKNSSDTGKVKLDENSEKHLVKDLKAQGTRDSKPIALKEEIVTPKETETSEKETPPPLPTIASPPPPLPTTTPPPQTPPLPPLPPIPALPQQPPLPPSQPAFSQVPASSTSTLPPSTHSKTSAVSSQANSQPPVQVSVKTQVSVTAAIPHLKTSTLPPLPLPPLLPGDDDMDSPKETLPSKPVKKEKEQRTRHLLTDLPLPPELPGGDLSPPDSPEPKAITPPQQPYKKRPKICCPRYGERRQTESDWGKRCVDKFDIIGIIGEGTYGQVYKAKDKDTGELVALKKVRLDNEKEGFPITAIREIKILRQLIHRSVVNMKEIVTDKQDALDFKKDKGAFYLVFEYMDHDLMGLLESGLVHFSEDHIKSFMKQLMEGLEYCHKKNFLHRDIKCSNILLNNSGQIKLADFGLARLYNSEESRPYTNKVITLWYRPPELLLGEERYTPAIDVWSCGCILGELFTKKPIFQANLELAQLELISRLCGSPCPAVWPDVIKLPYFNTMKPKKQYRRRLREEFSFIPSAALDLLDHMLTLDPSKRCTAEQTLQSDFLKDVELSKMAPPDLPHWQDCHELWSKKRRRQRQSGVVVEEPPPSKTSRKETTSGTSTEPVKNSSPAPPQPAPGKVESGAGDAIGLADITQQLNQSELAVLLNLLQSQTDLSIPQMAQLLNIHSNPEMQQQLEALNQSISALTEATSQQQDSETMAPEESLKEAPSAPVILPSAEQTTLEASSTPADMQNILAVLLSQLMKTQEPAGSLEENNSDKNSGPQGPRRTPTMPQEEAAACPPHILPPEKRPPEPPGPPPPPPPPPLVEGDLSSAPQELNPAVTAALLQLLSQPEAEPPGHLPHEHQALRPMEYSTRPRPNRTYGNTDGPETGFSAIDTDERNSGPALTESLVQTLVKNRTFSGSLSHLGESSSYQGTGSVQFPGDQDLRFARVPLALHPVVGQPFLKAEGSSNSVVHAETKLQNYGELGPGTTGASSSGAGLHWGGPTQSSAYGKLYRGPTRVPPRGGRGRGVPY

IC50 [1]: 39 nM | IC50 (CDK12/Cyclin K): 64 nM | GI50 (OCI-LY19): 465 nM | IC50 [5]: > 1000 nM | IC50 [12]: 4 nM | IC50 (CDK9/cyclin T1): 20 nM | IC50 [21]: 22 nM
Compound: NCCSc1nc(NCc2ccc(-n3cccn3)cc2)c2[nH]nc(C3CCC3)c2n1
GI50 [2]: 11 nM | Activity (MINO [3]): Active | GI50 (NU-DUL-1): 15 nM | Activity (MINO [4]): Dde | GI50 (U2932): 55 nM | Activity (VFN-D2 [6]): Active | Activity (MINO [7]): Dde | Activity (MINO [8]): Active | Activity (MINO [9]): Dde | Activity (VFN-D2 [10]): Active | GI50 [11]: 54 nM | GI50 (SUD4): 28 nM | Activity (MINO [13]): Dde | Activity (MINO [14]): Active | Activity (MINO [15]): Dde | GI50 (DB): 20 nM | GI50 [16]: 10 nM | GI50 [17]: 10 nM | Activity (MINO [18]): Dde | Activity (MINO [19]): Active | Activity (MINO [20]): Active | Activity (MINO [22]): Dde
